# Results: patent publication US12378224B2 (Dong-A Socio Holdings Co., Ltd., priority 2016, dated 2025)
# Biological target: human MER (528-end) (Homo sapiens (Human), UniProt Q12866)
# Assay: HTRF Kinase Activity Biochemical Assay (KinEASE-TK)
# Conditions: 10 uM ATP
# Procedure, shortened: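 Recombinant human MER (528-end) phosphorylated biotin-TK peptide substrate, 1 h at room temperature. Reaction stopped with detection buffer containing 0.375 nM Eu3+-cryptate anti-TK antibody and 0.062 uM streptavidin-XL665, 1 h further. Activity taken as HTRF ratio 665/620 nm ×10,000, 340 nm excitation.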
# Chain of human MER (528-end) (Q12866 528-999 limits assumed): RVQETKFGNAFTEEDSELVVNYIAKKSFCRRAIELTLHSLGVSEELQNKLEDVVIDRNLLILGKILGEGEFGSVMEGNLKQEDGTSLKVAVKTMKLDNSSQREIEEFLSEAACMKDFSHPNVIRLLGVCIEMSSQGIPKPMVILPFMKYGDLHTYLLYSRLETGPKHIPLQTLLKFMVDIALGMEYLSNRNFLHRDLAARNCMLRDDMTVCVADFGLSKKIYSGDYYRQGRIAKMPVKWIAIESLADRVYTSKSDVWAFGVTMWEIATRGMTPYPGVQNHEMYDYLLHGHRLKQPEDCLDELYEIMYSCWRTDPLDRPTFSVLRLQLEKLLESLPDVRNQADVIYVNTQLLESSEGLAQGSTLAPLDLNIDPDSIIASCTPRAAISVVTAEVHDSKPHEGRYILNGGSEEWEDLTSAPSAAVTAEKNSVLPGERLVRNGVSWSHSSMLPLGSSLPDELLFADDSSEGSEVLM
row,IC50 [nM],SMILES
1,> 1000,"Cn1cc(-c2cnc(N)c(C(=O)N[C@@H]3CCN(C(=O)c4cccc(-c5cccnc5)c4)C3)c2)cn1 [Example 472, (R)-2-amino-5-(1-methyl-1H-pyrazol-4-yl)-N-(1-(3-(pyridin-3-yl)benzoyl)pyrrolidin-3-yl)nicotinamide]"
2,> 1000,"Cn1cc(-c2cnc(N)c(C(=O)N[C@@H]3CCN(C(=O)c4cccc(-c5ccnc(N6CCNCC6)c5)c4)C3)c2)cn1 [Example 480, (R)-2-amino-5-(1-methyl-1H-pyrazol-4-yl)-N-(1-(3-(2-(piperazin-1-yl)pyridin-4-yl)benzoyl)pyrrolidin-3-yl)nicotinamide]"
3,> 1000,"Cn1cc(-c2cnc(N)c(C(=O)N[C@@H]3CCN(C(=O)c4cccc(-c5cccc(NS(C)(=O)=O)c5)c4)C3)c2)cn1 [Example 481, (R)-2-amino-5-(1-methyl-1H-pyrazol-4-yl)-N-(1-(3′-(methylsulfonamido)-[1,1′-biphenyl]-3-carbonyl)pyrrolidin-3-yl)nicotinamide]"
4,> 1000,"Cc1ccc(C(=O)N2CC[C@@H](NC(=O)c3cc(-c4cnn(C)c4)cnc3N)C2)cc1-c1ccccc1Cl [Example 483, (R)-2-amino-N-(1-(2′-chloro-6-methyl-[1,1′-biphenyl]-3-carbonyl)pyrrolidin-3-yl)-5-(1-methyl-1H-pyrazol-4-yl)nicotinamide]"
5,> 1000,"Cn1cc(-c2cnc(N)c(C(=O)N[C@@H]3CCN(C(=O)c4ccc(-c5cc6ccccc6s5)cc4)C3)c2)cn1 [Example 490, (R)-2-amino-N-(1-(4-(benzo[b]thiophen-2-yl)benzoyl)pyrrolidin-3-yl)-5-(1-methyl-1H-pyrazol-4-yl)nicotinamide]"
6,> 1000,"CC1=C(C(=O)N2CC[C@@H](NC(=O)c3cc(-c4cnn(C)c4)cnc3N)C2)Cc2ccccc21 [Example 497, (R)-2-amino-N-(1-(3-methyl-1H-indene-2-carbonyl)pyrrolidin-3-yl)-5-(1-methyl-1H-pyrazol-4-yl)nicotinamide]"
7,> 1000,"Cn1cc(-c2cnc(N)c(C(=O)N[C@@H]3CCN(C(=O)c4ccc(-c5cnn(C6CCCC6)c5)cc4)C3)c2)cn1 [Example 508, (R)-2-amino-N-(1-(4-(1-cyclopentyl-1H-pyrazol-4-yl)benzoyl)pyrrolidin-3-yl)-5-(1-methyl-1H-pyrazol-4-yl)nicotinamide]"
8,> 1000,"Cn1cc(-c2cnc(N)c(C(=O)N[C@@H]3CCN(C(=O)c4ccc(-c5cnn(C6CCOCC6)c5)cc4)C3)c2)cn1 [Example 509, (R)-2-amino-5-(1-methyl-1H-pyrazol-4-yl)-N-(1-(4-(1-(tetrahydro-2H-pyran-4-yl)-1H-pyrazol-4-yl)benzoyl)pyrrolidin-3-yl)nicotinamide]"
9,> 1000,"Cn1cc(-c2cnc(N)c(C(=O)N[C@@H]3CCN(C(=O)c4ccc(-c5cnn(C6CCNCC6)c5)cc4)C3)c2)cn1 [Example 510, (R)-2-amino-5-(1-methyl-1H-pyrazol-4-yl)-N-(1-(4-(1-(piperidin-4-yl)-1H-pyrazol-4-yl)benzoyl)pyrrolidin-3-yl)nicotinamide]"
10,> 1000,"Cn1cc(-c2cnc(N)c(C(=O)N[C@@H]3CCN(C(=O)c4cccc(O)c4)C3)c2)cn1 [Example 515, (R)-2-amino-N-(1-(3-hydroxybenzoyl)pyrrolidin-3-yl)-5-(1-methyl-1H-pyrazol-4-yl)nicotinamide]"
11,> 1000,"Cc1nn(-c2ccccc2)c(C)c1-c1ccc(C(=O)N2CC[C@@H](NC(=O)c3cc(-c4cnn(C)c4)cnc3N)C2)cc1 [Example 519, (R)-2-amino-N-(1-(4-(3,5-dimethyl-1-phenyl-1H-pyrazol-4-yl)benzoyl)pyrrolidin-3-yl)-5-(1-methyl-1H-pyrazol-4-yl)nicotinamide]"

# More lines, now with the values behind:
row,SMILES,IC50 [nM]
1,"Cn1cc(-c2cnc(N)c(C(=O)N[C@@H]3CCN(C(=O)c4cccc(-c5cnn(C6CCCC6)c5)c4)C3)c2)cn1 [Example 470, (R)-2-amino-N-(1-(3-(1-cyclopentyl-1H-pyrazol-4-yl)benzoyl)pyrrolidin-3-yl)-5-(1-methyl-1H-pyrazol-4-yl)nicotinamide]",> 1000
2,"Cn1cc(-c2cnc(N)c(C(=O)N[C@@H]3CCN(C(=O)c4cccc(-c5ccncc5)c4)C3)c2)cn1 [Example 473, (R)-2-amino-5-(1-methyl-1H-pyrazol-4-yl)-N-(1-(3-(pyridin-4-yl)benzoyl)pyrrolidin-3-yl)nicotinamide]",> 1000
3,"Cn1cc(-c2cnc(N)c(C(=O)N[C@@H]3CCN(C(=O)c4cccc(-c5cc6ccccc6s5)c4)C3)c2)cn1 [Example 474, (R)-2-amino-N-(1-(3-(benzo[b]thiophen-2-yl)benzoyl)pyrrolidin-3-yl)-5-(1-methyl-1H-pyrazol-4-yl)nicotinamide]",> 1000
4,"CN1CCN(c2cccc(-c3cccc(C(=O)N4CC[C@@H](NC(=O)c5cc(-c6cnn(C)c6)cnc5N)C4)c3)c2)CC1 [Example 476, (R)-2-amino-5-(1-methyl-1H-pyrazol-4-yl)-N-(1-(3′-(4-methylpiperazin-1-yl)-[1,1′-biphenyl]-3-carbonyl)pyrrolidin-3-yl)nicotinamide]",> 1000
5,"Cn1cc(-c2cnc(N)c(C(=O)N[C@@H]3CCN(C(=O)c4cccc(-c5ccccc5Cl)c4)C3)c2)cn1 [Example 478, (R)-2-amino-N-(1-(2′-chloro-[1,1′-biphenyl]-3-carbonyl)pyrrolidin-3-yl)-5-(1-methyl-1H-pyrazol-4-yl)nicotinamide]",> 1000
6,"Cn1cc(-c2cnc(N)c(C(=O)N[C@@H]3CCN(C(=O)c4cccc(-c5cccc(Cl)c5)c4)C3)c2)cn1 [Example 479, (R)-2-amino-N-(1-(3′-chloro-[1,1′-biphenyl]-3-carbonyl)pyrrolidin-3-yl)-5-(1-methyl-1H-pyrazol-4-yl)nicotinamide]",> 1000
7,"Cc1ccc(C(=O)N2CC[C@@H](NC(=O)c3cc(-c4cnn(C)c4)cnc3N)C2)cc1-c1ccccc1 [Example 482, (R)-2-amino-5-(1-methyl-1H-pyrazol-4-yl)-N-(1-(6-methyl-[1,1′-biphenyl]-3-carbonyl)pyrrolidin-3-yl)nicotinamide]",> 1000
8,"Cc1ccc(C(=O)N2CC[C@@H](NC(=O)c3cc(-c4cnn(C)c4)cnc3N)C2)cc1-c1cccc(Cl)c1 [Example 484, (R)-2-amino-N-(1-(3′-chloro-6-methyl-[1,1′-biphenyl]-3-carbonyl)pyrrolidin-3-yl)-5-(1-methyl-1H-pyrazol-4-yl)nicotinamide]",> 1000
9,"Cc1cc(C(=O)N2CC[C@@H](NC(=O)c3cc(-c4cnn(C)c4)cnc3N)C2)c(N)c(-c2ccccc2)c1 [Example 485, (R)-2-amino-N-(1-(2-amino-5-methyl-[1,1′-biphenyl]-3-carbonyl)pyrrolidin-3-yl)-5-(1-methyl-1H-pyrazol-4-yl)nicotinamide]",100 to 1000
10,"Cc1nn(C)cc1-c1ccc(C(=O)N2CC[C@@H](NC(=O)c3cc(-c4cnn(C)c4)cnc3N)C2)cc1 [Example 488, (R)-2-amino-N-(1-(4-(1,3-dimethyl-1H-pyrazol-4-yl)benzoyl)pyrrolidin-3-yl)-5-(1-methyl-1H-pyrazol-4-yl)nicotinamide]",100 to 1000
11,"Cn1cc(-c2cnc(N)c(C(=O)N[C@@H]3CCN(C(=O)c4ccc(-c5ccnc(N6CCNCC6)c5)cc4)C3)c2)cn1 [Example 491, (R)-2-amino-5-(1-methyl-1H-pyrazol-4-yl)-N-(1-(4-(2-(piperazin-1-yl)pyridin-4-yl)benzoyl)pyrrolidin-3-yl)nicotinamide]",100 to 1000
12,"Cn1cc(-c2cnc(N)c(C(=O)N[C@@H]3CCN(C(=O)c4ccc(-c5ccc(N6CCOCC6)cc5)cc4)C3)c2)cn1 [Example 492, (R)-2-amino-5-(1-methyl-1H-pyrazol-4-yl)-N-(1-(4′-morpholino-[1,1′-biphenyl]-4-carbonyl)pyrrolidin-3-yl)nicotinamide]",> 1000
13,"Cn1cc(-c2cnc(N)c(C(=O)N[C@@H]3CCN(C(=O)c4ccc(-c5ccc(C(=O)N6CCOCC6)cc5)cc4)C3)c2)cn1 [Example 493, (R)-2-amino-5-(1-methyl-1H-pyrazol-4-yl)-N-(1-(4′-(morpholine-4-carbonyl)-[1,1′-biphenyl]-4-carbonyl)pyrrolidin-3-yl)nicotinamide]",> 1000
14,"Cn1cc(-c2cnc(N)c(C(=O)N[C@@H]3CCN(C(=O)c4cccc5[nH]ccc45)C3)c2)cn1 [Example 504, (R)—N-(1-(1H-indole-4-carbonyl)pyrrolidin-3-yl)-2-amino-5-(1-methyl-1H-pyrazol-4-yl)nicotinamide]",> 1000
15,"Cn1cc(-c2ccc(C(=O)N3CC[C@@H](NC(=O)c4cc(-c5cnn(C)c5)cnc4N)C3)cc2)cn1 [Example 506, (R)-2-amino-5-(1-methyl-1H-pyrazol-4-yl)-N-(1-(4-(1-methyl-1H-pyrazol-4-yl)benzoyl)pyrrolidin-3-yl)nicotinamide]",100 to 1000
16,"Cc1nn(C)c(C)c1-c1ccc(C(=O)N2CC[C@@H](NC(=O)c3cc(-c4cnn(C)c4)cnc3N)C2)cc1 [Example 507, (R)-2-amino-5-(1-methyl-1H-pyrazol-4-yl)-N-(1-(4-(1,3,5-trimethyl-1H-pyrazol-4-yl)benzoyl)pyrrolidin-3-yl)nicotinamide]",100 to 1000
17,"Cn1cc(-c2cnc(N)c(C(=O)N[C@@H]3CCN(C(=O)c4cc5cc(-c6ccccc6)ccc5o4)C3)c2)cn1 [Example 512, (R)-2-amino-5-(1-methyl-1H-pyrazol-4-yl)-N-(1-(5-phenylbenzofuran-2-carbonyl)pyrrolidin-3-yl)nicotinamide]",> 1000
18,"Cc1c(-c2ccc(C(=O)N3CC[C@@H](NC(=O)c4cc(-c5cnn(C)c5)cnc4N)C3)cc2)cnn1C [Example 517, (R)-2-amino-N-(1-(4-(1,5-dimethyl-1H-pyrazol-4-yl)benzoyl)pyrrolidin-3-yl)-5-(1-methyl-1H-pyrazol-4-yl)nicotinamide]",10 to 100
19,"Cc1sc(-c2ccc(C(=O)N3CC[C@@H](NC(=O)c4cc(-c5cnn(C)c5)cnc4N)C3)cc2)c(C)c1Br [Example 522, (R)-2-amino-N-(1-(4-(4-bromo-3,5-dimethylthiophen-2-yl)benzoyl)pyrrolidin-3-yl)-5-(1-methyl-1H-pyrazol-4-yl)nicotinamide]",100 to 1000
